Measured values as given in US10499640B2, “Herbicidal compounds” (SYNGENTA PARTICIPATIONS AG, priority 2014, dated 2019).

Key:
Type in all cases: in vivo
Zea mays (ZEAMX) [1] = assay: Pre-emergence herbicidal activity, glasshouse pot test; settings: Rate 1000 g/Ha; sprayed one day after sowing; evaluated after 13 days; scale 0-5
Method: (§1) Seeds of a variety of test species were sown in standard soil in pots. After cultivation for one day (pre-emergence) under controlled conditions in a glasshouse (at 24/16° C., day/night; 14 hours light; 65% humidity), the plants were sprayed with an aqueous spray solution derived from the formulation of the technical active ingredient in acetone/water (50:50) solution containing 0.5% Tween 20 (polyoxyethelyene sorbitan monolaurate, CAS RN 9005-64-5). The test plants were then grown in a glasshouse under controlled conditions (at 24/16° C., day/night; 14 hours light; 65% humidity) and watered twice daily. After 13 days, the test was evaluated (5=total damage to plant; 0=no damage to plant).

[2] = tested on: Echinochloa crus-galli (ECHCG); assay: as above; parameters: key: 5=total damage to plant; 0=no damage to plant; settings: Rate 1000 g/Ha; sprayed one day after sowing; evaluated after 13 days; scale 0-5
Method: as §1

[3] = tested on: Amaranthus retroflexus (AMARE); assay: as above; parameters: key: 5=total damage to plant; 0=no damage to plant; settings: Rate 1000 g/Ha; sprayed one day after sowing; evaluated after 13 days; scale 0-5
Method: as §1

[4] = tested on: Abutilon theophrasti (ABUTH); assay: as above; parameters: key: 5=total damage to plant; 0=no damage to plant; settings: Rate 1000 g/Ha; sprayed one day after sowing; evaluated after 13 days; scale 0-5
Method: as §1

Setaria faberi (SETFA) [5] = assay: as above; parameters: key: 5=total damage to plant; 0=no damage to plant; settings: Rate 1000 g/Ha; sprayed one day after sowing; evaluated after 13 days; scale 0-5
Method: as §1

[6] = tested on: Echinochloa crus-galli (ECHCG); assay: Post-emergence herbicidal activity, glasshouse pot test; parameters: key: 5=total damage to plant; 0=no damage to plant; settings: Rate 1000 g/Ha; sprayed after 8 days cultivation; evaluated after 13 days; scale 0-5
Method: (§2) Seeds of a variety of test species were sown in standard soil in pots. After 8 days cultivation (post-emergence) under controlled conditions in a glasshouse (at 24/16° C., day/night; 14 hours light; 65% humidity), the plants were sprayed with an aqueous spray solution derived from the formulation of the technical active ingredient in acetone/water (50:50) solution containing 0.5% Tween 20 (polyoxyethelyene sorbitan monolaurate, CAS RN 9005-64-5). The test plants were then grown in a glasshouse under controlled conditions (at 24/16° C., day/night; 14 hours light; 65% humidity) and watered twice daily. After 13 days, the test was evaluated (5=total damage to plant; 0=no damage to plant).

[7] = tested on: Amaranthus retroflexus (AMARE); assay: as above; parameters: key: 5=total damage to plant; 0=no damage to plant; settings: Rate 1000 g/Ha; sprayed after 8 days cultivation; evaluated after 13 days; scale 0-5
Method: as §2

Zea mays (ZEAMX) [8] = assay: as above; parameters: key: 5=total damage to plant; 0=no damage to plant; settings: Rate 1000 g/Ha; sprayed after 8 days cultivation; evaluated after 13 days; scale 0-5
Method: as §2

[9] = tested on: Abutilon theophrasti (ABUTH); assay: as above; parameters: key: 5=total damage to plant; 0=no damage to plant; settings: Rate 1000 g/Ha; sprayed after 8 days cultivation; evaluated after 13 days; scale 0-5
Method: as §2

Setaria faberi (SETFA) [10] = assay: as above; parameters: key: 5=total damage to plant; 0=no damage to plant; settings: Rate 1000 g/Ha; sprayed after 8 days cultivation; evaluated after 13 days; scale 0-5
Method: as §2

SMILES | ZEAMX damage score, application pre-emergence (Zea mays (ZEAMX) [1]) | ECHCG damage score, application pre-emergence [2] | AMARE damage score, application pre-emergence [3] | ABUTH damage score, application pre-emergence [4] | SETFA damage score, application pre-emergence (Setaria faberi (SETFA) [5]) | ECHCG damage score, application post-emergence [6] | AMARE damage score, application post-emergence [7] | ZEAMX damage score, application post-emergence (Zea mays (ZEAMX) [8]) | ABUTH damage score, application post-emergence [9] | SETFA damage score, application post-emergence (Setaria faberi (SETFA) [10])
CN1CC(O)N(c2cc(C(C)(C)O)on2)C1=O (stereo not drawn) [Compound A11] | 2 | 5 | 5 | 5 | 4 | 5 | 5 | 3 | 5 | 4
CCOC1C(O)N(c2cc(C(C)(C)F)no2)C(=O)N1C (stereo not drawn) [Compound A19] | 2 | 5 | 5 | 4 | 4 | 5 | 5 | 4 | 5 | 5
CON1C(=O)N(c2cc(C(C)(C)OC)on2)C(O)C1C (stereo not drawn) [Compound A13] | 2 | 5 | 5 | 5 | 5 | 5 | 5 | 4 | 5 | 5
CC1C(O)N(c2cc(C(C)(C)F)no2)C(=O)N1C (stereo not drawn) [Compound A17] | 2 | 5 | 5 | 5 | 5 | 5 | 5 | 4 | 5 | 5
COC(C)(C)c1cc(N2C(=O)N(C)CC2O)no1 (stereo not drawn) [Compound A9] | 3 | 5 | 5 | 5 | 5 | 5 | 5 | 5 | 5 | 5
COCC1C(O)N(c2cc(C(C)(C)OC)on2)C(=O)N1C (stereo not drawn) [Compound A15] | 2 | 5 | 5 | 5 | 5 | 5 | 5 | 3 | 5 | 5
CON1C(=O)N(c2cc(C(C)(C)F)no2)C(O)C1C (stereo not drawn) [Compound A18] | 2 | 5 | 5 | 5 | 5 | 5 | 5 | 4 | 5 | 5
CCOC1C(O)N(c2cc(C(C)(C)OC)on2)C(=O)N1C (stereo not drawn) [Compound A14] | 2 | 5 | 5 | 5 | 5 | 5 | 5 | 4 | 5 | 5
C#CCC1C(O)N(c2cc(C(C)(C)C)on2)C(=O)N1CC#C (stereo not drawn) [Compound A23] | 2 | 4 | 5 | 5 | 5 | 5 |  |  |  | 
COC(C)(C)c1cc(N2C(=O)N(C)[C@H](C)C2O)no1 (stereo partly drawn) [Compound A12] | 3 | 5 | 5 | 5 | 5 | 5 | 5 | 4 | 5 | 5
CC(C)(C)c1cc(N2C(=O)N3COCC3C2O)no1 (stereo not drawn) [Compound A21] | 3 | 5 | 5 | 5 | 5 | 5 | 5 | 4 | 5 | 5
C[C@@H]1C(O)N(c2cc(C(C)(C)F)no2)C(=O)N1C (stereo partly drawn) [Compound A20] | 3 | 5 | 5 | 5 | 4 | 5 | 5 | 4 | 5 | 5
COC(C)(C)c1cc(N2C(=O)N(C)C(C)C2O)no1 (stereo not drawn) [Compound A10] | 3 | 5 | 5 | 5 | 5 | 5 | 5 | 5 | 5 | 5
CN1CC(O)N(c2cc(C(C)(C)F)no2)C1=O (stereo not drawn) [Compound A16] | 2 | 5 | 5 | 5 | 5 | 5 | 5 | 5 | 5 | 5
C#CCN1CC(O)N(c2cc(C(C)(C)C)on2)C1=O (stereo not drawn) [Compound A24] | 3 | 5 | 5 | 5 | 5 | 5 |  |  |  | 
C#CCN1C(=O)N(c2cc(C(C)(C)C)on2)C(O)C1C (single isomer, unassigned) [Compound A22] | 3 | 5 | 5 | 5 | 5 | 5 | 5 | 5 | 5 | 5
CC(C)(C)c1cc(N2C(=O)N3CCCC3C2O)no1 (stereo not drawn) [Compound A25] | 4 | 5 | 5 | 5 | 4 | 5 | 5 | 5 | 5 | 5
